Reference: PubChem BioAssay (NCI)
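How tested: cells in 96-well plates exposed to compound for 48 hours at five concentrations. TGI denotes the concentration required for complete inhibition of growth.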

Assays:
Experiment in all cases: NCI-60 cell line screen, 48 h
A549 NSCLC = system: A549 NSCLC
SNB-19 CNS = system: SNB-19 CNS
HCC-2998 colon = system: HCC-2998 colon
NCI/ADR-RES ovarian = system: NCI/ADR-RES ovarian
UACC-257 melanoma = system: UACC-257 melanoma
M14 melanoma = system: M14 melanoma
HOP-62 NSCLC = system: HOP-62 NSCLC
HL-60(TB) leukemia = system: HL-60(TB) leukemia
OVCAR-4 ovarian = system: OVCAR-4 ovarian
DU-145 prostate = system: DU-145 prostate
T-47D breast = system: T-47D breast
UACC-62 melanoma = system: UACC-62 melanoma
HCT-116 colon = system: HCT-116 colon
SF-295 CNS = system: SF-295 CNS
A498 renal = system: A498 renal
SF-268 CNS = system: SF-268 CNS
ACHN renal = system: ACHN renal
HT29 colon = system: HT29 colon
MDA-MB-231 breast = system: MDA-MB-231 breast
MCF7 breast = system: MCF7 breast
U251 CNS = system: U251 CNS
RXF 393 renal = system: RXF 393 renal
786-0 renal = system: 786-0 renal
SN12C renal = system: SN12C renal
OVCAR-5 ovarian = system: OVCAR-5 ovarian
NCI-H23 lung = system: NCI-H23 lung
OVCAR-8 ovarian = system: OVCAR-8 ovarian
SK-OV-3 ovarian = system: SK-OV-3 ovarian
MOLT-4 leukemia = system: MOLT-4 leukemia
PC-3 prostate = system: PC-3 prostate
SK-MEL-5 melanoma = system: SK-MEL-5 melanoma
SW-620 colon = system: SW-620 colon
MDA-N = system: MDA-N
TK-10 renal = system: TK-10 renal
EKVX NSCLC = system: EKVX NSCLC
HCT-15 colon = system: HCT-15 colon
NCI-H226 lung = system: NCI-H226 lung
LOX IMVI melanoma = system: LOX IMVI melanoma
COLO 205 colon = system: COLO 205 colon
RPMI-8226 leukemia = system: RPMI-8226 leukemia
SK-MEL-28 melanoma = system: SK-MEL-28 melanoma
MDA-MB-435 = system: MDA-MB-435
CCRF-CEM leukemia = system: CCRF-CEM leukemia
K-562 leukemia = system: K-562 leukemia
SF-539 CNS = system: SF-539 CNS
OVCAR-3 ovarian = system: OVCAR-3 ovarian
CAKI-1 renal = system: CAKI-1 renal
UO-31 renal = system: UO-31 renal
SNB-75 CNS = system: SNB-75 CNS
NCI-H460 lung = system: NCI-H460 lung
HOP-92 NSCLC = system: HOP-92 NSCLC
KM12 colon = system: KM12 colon
HS 578T breast = system: HS 578T breast
SK-MEL-2 melanoma = system: SK-MEL-2 melanoma
NCI-H522 lung = system: NCI-H522 lung
IGROV1 ovarian = system: IGROV1 ovarian
MALME-3M melanoma = system: MALME-3M melanoma

Measured: TGI

O=C(N/C(=C\NC1=NCCS1)C(=O)N1CSC[C@@H]1C(=O)O)c1ccccc1
not listed: HS 578T breast | SK-MEL-2 melanoma | NCI-H522 lung | IGROV1 ovarian | MALME-3M melanoma
> 100 µM: all other assays above

CCOC(=O)C1C(c2ccco2)C2(C#N)C(=N)OC1(C)C2(C#N)C#N (stereo not drawn)
not listed: HOP-62 NSCLC | HL-60(TB) leukemia | OVCAR-4 ovarian | SK-MEL-28 melanoma | OVCAR-3 ovarian | NCI-H460 lung
> 100 µM: all other assays above
